Here are results for five compounds from US20050038044A1, “Use of propionyl-carnitine or one of its pharmacologically acceptable salts for the preparation of a medicine for the treatment of la peyronie's disease” (priority 2001, published 2005).

Molecules are shown by their SMILES.

For assay [1], the system named is induratio penis plastica (La Peyronie's disease) at the chronic stage. The assay can be described thus: Example 1: oral tamoxifen versus intravenous propionyl L-carnitine, randomised patients. Type of assay: in vivo, human. The procedure:
(§1) The examples are based on a limited number of patients and therefore the analysis of the results was carried out only with regard to the fundamental characteristics of the disease, namely plaque area in mm^2 (as measured by means of dynamic colour Doppler ultrasonography) and curvature of the artificially erect penis induced by intracavernous injection of 20 μg of prostaglandin E1.
40 subjects (mean age 52, range 44-61) with induratio penis plastica (La Peyronie's disease) at the chronic stage were randomised […] intravenous propionyl L-carnitine 300×2 mg/day for 3 months, and the second group to therapy with oral tamoxifen 20×2 mg/day. The variables measured were plaque area by means of dynamic colour Doppler ultrasonography and penile curvature, which was present in 16 patients per group. […] Intraplaque verapamil was not used in these patients.
The results are presented in Table 1, where the data are expressed as mean±standard deviation (S.D.).

In assay [2] the test system is induratio penis plastica at an advanced chronic stage. The experiment in a line: Example 6: oral propionyl L-carnitine versus oral acetyl L-carnitine, each plus intraplaque verapamil. Type of assay: in vivo, human. As for the experimental part: 20 subjects (mean age 48, range 40-61) with induratio penis plastica at an advanced chronic stage were randomised to two groups of 10 patients each. The first group was submitted to therapy with oral propionyl L-carnitine (PLC) 1×2 g/day 3 months and intraplaque verapamil 10 mg (10 infiltrations, 1 a week), while the second group was submitted to therapy with oral acetyl L-carnitine (ALC) 1×2 g/day for 3 months+intraplaque verapamil 10 mg (10 infiltrations, 1 a week). The variables measured were plaque area by dynamic colour Doppler penile ultrasonography. In view of the limited number of subjects in the sample it was not possible to carry out any analysis of other data; in any event, the size of the plaque is the most important variable when monitoring La Peyronie's disease, since all the other symptoms depend on the extent of the plaque (Belgrano, ibid.).
The results are presented in Table 14, where the data are expressed as mean±standard deviation (S.D.).

Assay [3] has as its system induratio penis plastica in the early chronic stage. The assay can be described thus: Example 2: oral tamoxifen versus intramuscular propionyl L-carnitine, randomised patients. Type of assay: in vivo, human. The procedure: as §1
30 subjects (mean age 50, range 42-63) with induratio penis plastica in the early chronic stage were randomised to two groups of 15 patients each. The first group was submitted to therapy with intramuscular propionyl L-carnitine 300×2 mg/day for 3 months, and the second group to therapy with oral tamoxifen 20×2 mg/day. The variables measured were plaque area (in all subjects) and penile curvature, which was present in 12 subjects per group. […] Intraplaque verapamil was not used in these patients.
The results are presented in Table 2, where the data are expressed as mean±standard deviation (S.D.).

Assay [4] relates to chemically induced inflammation of both the skin and the arteries. The note with it: rats; cited from earlier work.
Assay [5] concerns induratio penis plastica in the chronic stage. The assay can be described thus: Example 3: intraplaque triamcinolone acetonide versus intraplaque propionyl L-carnitine. Type of assay: in vivo, human. The procedure:
as §1
In this case […] the study population consisted of 34 patients (mean age 50, range 44-63) with induratio penis plastica in the chronic stage, who presented an irremediable intolerance to intraplaque verapamil.
17 were submitted to intraplaque infiltrations with propionyl L-carnitine 300 mg, 1 infiltration per week for 10 weeks, and 17 to intraplaque infiltrations with triamcinolone acetonide 40 mg (Kenacort® Squibb), 1 infiltration per week for 10 weeks. The variables measured were plaque area in mm^2 by dynamic colour Doppler ultrasonography and the curvature of the artificially erect penis in degrees.
The results are presented in Table 3, where the data are expressed as mean±standard deviation (S.D.).

Assay [6] deals with advanced La Peyronie's disease. The assay can be described thus: Example 4: randomised double-blind study, intraplaque verapamil plus oral propionyl L-carnitine or tamoxifen. The note with it: curvature, plaque area, I.I.E.F. 15 score, EDV, RI. Type of assay: in vivo, human.
Procedure: The study was conducted according to a randomised double-blind protocol. […] The data were collected 6 months after the end of therapy when the initial history taking and semeiological examination were repeated. […] I.I.E.F. 15 score; • V. Peak systolic velocity (PSV) (cm/sec), end-diastolic velocity (EDV) (cm/sec) and the resistivity index (RI) of the right and left cavernous arteries using dynamic Doppler ultrasonography; • VI. […] Need for penis straightening surgery and/or for straightening and a prosthesis, the results being classified as presence or absence of any such need; • VIII. Side effects classified as presence or absence of side effects.
The subject of assay [7] is La Peyronie's disease in the early stages. The note with it: oral treatment; acute and early chronic stages; cited from earlier work.
Where [8] appears, read: after therapy, PLC intravenous 300×2 mg/day, tamoxifen oral 20×2 mg/day, 3 months.
Where [9] appears, read: before therapy, artificially erect penis, 16 patients per group.
The mark [10] stands for this setting: after therapy, oral 1×2 g/day for 3 months + intraplaque verapamil 10 mg (10 infiltrations, 1 a week).
[11] abbreviates: after therapy, PLC intramuscular 300×2 mg/day, tamoxifen oral 20×2 mg/day, 3 months.
The mark [12] stands for this setting: before therapy, 12 subjects per group.
The mark [13] stands for this setting: after therapy, intraplaque PLC 300 mg or triamcinolone acetonide 40 mg, 1 infiltration per week for 10 weeks.

As to `CCC(=O)O[C@H](CC(=O)[O-])C[N+](C)(C)C` [PLC, propionyl L-carnitine], the Curvature in assay [1] (setting [8]) turned out to be 20.06 degrees; in assay [1] (setting [9]) it was 25.31 degrees; in assay [3] (setting [11]), 13.00 degrees; in assay [3] (setting [12]), 17.75 degrees; in assay [5] (setting [13]), 14.77 degrees; in assay [5] (before therapy) it was 20.38 degrees. Also, the Plaque area is on record as 19.2 mm^2 in assay [1] (setting [8]); 25.6 mm^2 in assay [1] (before therapy, mean); 7.9 mm^2 in assay [2] (setting [10]); 16.4 + mm^2 in assay [2] (before therapy, mean); 6.47 mm^2 in assay [3] (setting [11]); 11.1 mm^2 in assay [3] (before therapy, mean). Moreover, the Plaque area was determined as 15.47 mm^2 in assay [5] (setting [13]) and 26.65 mm^2 in assay [5] (before therapy, mean). The “Reduction of plaque area and curvature of the artificially erect penis, in words” value in assay [1] (intravenous PLC compared with oral tamoxifen) and in assay [3] (intramuscular PLC compared with oral tamoxifen) was “significantly greater extent than tamoxifen” throughout. Also, the “Reduction of plaque area, in words” value in assay [2] (PLC plus intraplaque verapamil compared with ALC plus intraplaque verapamil) is “significantly greater extent than acetyl L-carnitine plus intraplaque verapamil”. For the same compound, in assay [4], the “Protection against chemically induced inflammation, in words” value (from here on “Protection”) is given as “capable of affording protection”. For the same compound, the “Activity on plaque area and curvature, in words” value in assay [5] (intraplaque PLC compared with intraplaque triamcinolone acetonide) is reported as “significantly more active than triamcinolone acetonide”. Also, in assay [6], the “Activity on the variables characterising the disease, in words” value is “significantly more active than combined tamoxifen and verapamil”.

Turning to `CC(=O)O[C@H](CC(=O)[O-])C[N+](C)(C)C` [ALC, acetyl L-carnitine, reference compound], the Plaque area in assay [2] (setting [10]) is listed as 11.8 mm^2; in assay [2] (before therapy, mean), 16.3 mm^2. The “Activity in the treatment of La Peyronie's disease, in words” value in assay [7] is listed as “significantly more active than tamoxifen”. Further, the “Protection” value in assay [4] is “not being shared”.

With `CC/C(=C(\c1ccccc1)c1ccc(OCCN(C)C)cc1)c1ccccc1` [Tamoxifen, tamoxifen, reference compound], the Curvature in assay [1] (setting [8]) was 23.06 degrees; in assay [1] (setting [9]) it was 24.31 degrees; in assay [3] (setting [11]), 16.58 degrees; in assay [3] (setting [12]), 18.08 degrees. The Plaque area stood at 25.2 mm^2 in assay [1] (setting [8]); 26.8 mm^2 in assay [1] (before therapy, mean); 9.07 mm^2 in assay [3] (setting [11]); 11.6 mm^2 in assay [3] (before therapy, mean).

As for `C[N+](C)(C)C[C@H](O)CC(=O)[O-]` [L-carnitine], in assay [4], the “Protection” value was “not being shared”.

Regarding `CC1(C)O[C@@H]2C[C@H]3[C@@H]4CCC5=CC(=O)C=C[C@]5(C)[C@@]4(F)[C@@H](O)C[C@]3(C)[C@]2(C(=O)CO)O1` [Triamcinolone, triamcinolone acetonide, reference compound], the Curvature in assay [5] (setting [13]) worked out at 23.15 degrees; in assay [5] (before therapy) it was 22.69 degrees. The Plaque area is listed as 25.35 mm^2 in assay [5] (setting [13]) and 25.23 mm^2 in assay [5] (before therapy, mean).
